The results in this text go back to US6835747B1, “Ft-0554a substances and process for the preparation thereof” (The Kitasato Institute, priority 2003, dated 2004).

The target of one series is NADH-fumarate reductase (Ascaris suum, UniProt P24875). Kind of series: NADH-fumarate reductase inhibitory activity, Ascaris suum mitochondrial fraction, NADH absorption at 340 nm. Format: biochemical. The protocol:
NADH-fumarate reductase inhibitory activity of FT-0554A substance of the present invention is explained as follows.
Muscles of Ascaris suum were homogenized in 120 mM sodium phosphate solution (pH 7.0) and centrifuged at 3000×g for 10 minutes to collect the supernatant solution. The supernatant was further centrifuged at 10000×g for 20 minutes to collect the precipitate. The precipitate was suspended in 120 mM sodium phosphate solution (pH 7.0) to obtain mitochondorial fraction.
After 10 μl of test sample dissolved in 50% dimethyl sulfoxide solution was added into 96 wells microplate, 80 μl of 120 mM sodium phosphate solution (pH 7.0) containing 0.35 mM NADH, 7.2 mM disodium fumarate and 18 mg/ml bovine serum albumin was added thereto, and pre-incubated in the microplate reader ELX808 (Bio-Teck Industries Co.) at 37° C. for 5 minutes. Mithochondrial fraction of Ascaris suum 10 μl (protein content 0.3 mg) was added therein and incubated at 37° C. for 10 minutes. Absorption of NADH at 340 nm was measured every 15 seconds.
As a result of quantitative measurement of NADH-fumarate reductase activity shown by decrease in the slope of absorbancy at 340 nm, 50% inhibition of NADH-fumarate reductase activity were obtained at 0.4 μM of FT-0554A substance. Consequently, FT-0554A substance can be expected to use as drug for treatment or prevention of helminthiasis.

A short description of the next series: Solubility in solvent. Format: physicochemical.

Entries after “also recorded” stand apart in the source; their conditions may differ.

For the compound `CCC(C)/C=C/C=C(\C)CC(C)/C=C/C=C/C1OC(=O)C(O)C2OC12C` (stereo not shown) [FT-0554 substance, reference compound], on NADH-fumarate reductase, the “NADH-fumarate reductase inhibitory activity (in words)” value was “had NADH-fumarate reductase inhibitory activity”.
As to `CCC(C)/C=C/C=C(\C)CC(C)/C=C/C=C/C(O)C1(C)C=C(O)C(=O)O1` (stereo not shown) [FT-0554A substance], the Solubility in solvent result in “Solubility in solvent” (chloroform and ethyl acetate) is reported as “soluble”; in the series “Solubility in solvent” (water and n-hexane), “insoluble; also recorded: hardly soluble”. Moreover, the “NADH-fumarate reductase inhibitory activity (in words)” value on NADH-fumarate reductase was “equivalent level of inhibitory activity”.
